US9113629B2, “4-amino-6-(4-substituted-phenyl)-picolinates and 6-amino-2-(4-substituted-phenyl)-pyrimidine-4-carboxylates and their use as herbicides” (DOW AGROSCIENCES LLC, priority 2013, dated 2015)

Experiments:
[1] = system: HORSS: barley, including spring and winter (Hordeum vulgare); experiment: Post-emergent Test III, herbicidal activity in wheat and barley; type: in vivo
Procedure, shortened: (§1)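 Plants at the second to third true-leaf stage, grown in a greenhouse at about 18/17 °C with a 14 h photoperiod, were sprayed post-emergence at 187 L/ha with the high rate and ½× to 1/16× serial dilutions in an acetone/DMSO/crop-oil/surfactant carrier. Injury was rated visually at 21 d on a 0–100% scale, and GR20–GR90 were derived by probit analysis.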

[2] = system: SETVI: green foxtail (Setaria viridis); experiment: as above; type: in vivo
Procedure, shortened: as §1

[3] = system: APESV: bentgrass (Apera spica-venti); experiment: as above; type: in vivo
Procedure, shortened: as §1

[4] = system: TRZSS: wheat, including spring and winter (Triticum aestivum); experiment: as above; type: in vivo
Procedure, shortened: as §1

[5] = system: LOLSS: ryegrass including, Italian ryegrass (Lolium multiflorum), rigid ryegrass (Lolium rigidum), annual ryegrass (Lolium multiflorum subsp. Gaudini); experiment: as above; type: in vivo; settings: probit analysis, 21 days after application
Procedure, shortened: as §1

[6] = system: KCHSC: kochia (Kochia scoparia); experiment: as above; type: in vivo
Procedure, shortened: as §1

[7] = system: BROTE: downy brome (Bromus tectorum); experiment: as above; type: in vivo
Procedure, shortened: as §1

[8] = system: VERPE: bird's-eye speedwell (veronica persica); experiment: as above; type: in vivo
Procedure, shortened: as §1

[9] = as above; type: in vivo, Lolium multiflorum, Lolium rigidum; settings: Lolium multiflorum, post-emergence, 504 h, read-out: Visual Growth Reduction (%) 21 Days After Application LOLSS
Procedure, shortened: as §1

[10] = system: MATSS: scented mayweed (Matricaria chamomilla), pineappleweed (Matricaria matricarioides); experiment: as above; type: in vivo
Procedure, shortened: as §1

[11] = probit analysis, dose for growth reduction of 20 percent, 21 days after application, crop
[12] = probit analysis, dose for growth reduction of 50 percent, 21 days after application
[13] = probit analysis, dose for growth reduction of 80 percent, 21 days after application

**Q.** Which pest or weed control at 35 g/ha ([1]; Hordeum vulgare, post-emergence, 504 h, 35 g ai/ha, read-out: Visual Growth Reduction (%) 21 Days After Application HORSS) does the source give for `COC(=O)c1nc(-c2ccc(Cl)c(F)c2)c(F)c(N)c1Cl` [Compound 216] here?
**A.** The pest or weed control at 35 g/ha was 85 to 94%.

**Q.** And the pest or weed control at 70 g/ha ([1]; Hordeum vulgare, post-emergence, 504 h, 70 g ai/ha, read-out: Visual Growth Reduction (%) 21 Days After Application HORSS)?
**A.** Its pest or weed control at 70 g/ha is 85 to 94%.

**Q.** What about the pest or weed control at 140 g/ha ([1]; Hordeum vulgare, post-emergence, 504 h, 140 g ai/ha, read-out: Visual Growth Reduction (%) 21 Days After Application HORSS) of the same compound?
**A.** Its pest or weed control at 140 g/ha is 85 to 94%.

**Q.** What about the “GR20 HORSS” value [1, 11] of the same compound?
**A.** The value was 1 g ai/ha.

**Q.** And the pest or weed control at 35 g/ha ([2]; Setaria viridis, post-emergence, 504 h, 35 g ai/ha, read-out: Visual Growth Reduction (%) 21 Days After Application SETVI)?
**A.** Its pest or weed control at 35 g/ha is 60 to 74%.

**Q.** And the pest or weed control at 70 g/ha ([2]; Setaria viridis, post-emergence, 504 h, 70 g ai/ha, read-out: Visual Growth Reduction (%) 21 Days After Application SETVI)?
**A.** The pest or weed control at 70 g/ha was 75 to 84%.

**Q.** What about the pest or weed control at 140 g/ha ([2]; Setaria viridis, post-emergence, 504 h, 140 g ai/ha, read-out: Visual Growth Reduction (%) 21 Days After Application SETVI) of the same compound?
**A.** The pest or weed control at 140 g/ha was 85 to 94%.

**Q.** What about the “GR50 SETVI” value [2, 12] of the same compound?
**A.** Its value is 20 g ai/ha.

**Q.** What about the “GR80 SETVI” value [2, 13] of the same compound?
**A.** Its value is 64 g ai/ha.

**Q.** What about the pest or weed control at 35 g/ha ([3]; Apera spica-venti, post-emergence, 504 h, 35 g ai/ha, read-out: Visual Growth Reduction (%) 21 Days After Application APESV) of the same compound?
**A.** Its pest or weed control at 35 g/ha is 85 to 94%.

**Q.** What about the pest or weed control at 70 g/ha ([3]; Apera spica-venti, post-emergence, 504 h, 70 g ai/ha, read-out: Visual Growth Reduction (%) 21 Days After Application APESV) of the same compound?
**A.** The pest or weed control at 70 g/ha was 85 to 94%.

**Q.** What about the pest or weed control at 140 g/ha ([3]; Apera spica-venti, post-emergence, 504 h, 140 g ai/ha, read-out: Visual Growth Reduction (%) 21 Days After Application APESV) of the same compound?
**A.** The pest or weed control at 140 g/ha was 95 to 100%.

**Q.** And the “GR50 APESV” value [3, 12]?
**A.** Its value is 6 g ai/ha.

**Q.** And the “GR80 APESV” value [3, 13]?
**A.** Its value is 20 g ai/ha.

**Q.** And the pest or weed control at 35 g/ha ([4]; Triticum aestivum, post-emergence, 504 h, 35 g ai/ha, read-out: Visual Growth Reduction (%) 21 Days After Application TRZSS)?
**A.** Its pest or weed control at 35 g/ha is 75 to 84%.

**Q.** And the pest or weed control at 70 g/ha ([4]; Triticum aestivum, post-emergence, 504 h, 70 g ai/ha, read-out: Visual Growth Reduction (%) 21 Days After Application TRZSS)?
**A.** Its pest or weed control at 70 g/ha is 85 to 94%.

**Q.** What about the pest or weed control at 140 g/ha ([4]; Triticum aestivum, post-emergence, 504 h, 140 g ai/ha, read-out: Visual Growth Reduction (%) 21 Days After Application TRZSS) of the same compound?
**A.** The pest or weed control at 140 g/ha was 85 to 94%.

**Q.** And the “GR20 TRZSS” value [4, 11]?
**A.** The value was 1 g ai/ha.

**Q.** What about the “GR50 LOLSS” value ([5]; dose for growth reduction of 50 percent) of the same compound?
**A.** Its value is 137 g ai/ha.

**Q.** What about the “GR80 LOLSS” value ([5]; dose for growth reduction of 80 percent) of the same compound?
**A.** The value was >140 g ai/ha.

**Q.** And the pest or weed control at 35 g/ha ([6]; Bassia scoparia, post-emergence, 504 h, 35 g ai/ha, read-out: Visual Growth Reduction (%) 21 Days After Application KCHSC)?
**A.** The pest or weed control at 35 g/ha was 95 to 100%.

**Q.** And the pest or weed control at 70 g/ha ([6]; Bassia scoparia, post-emergence, 504 h, 70 g ai/ha, read-out: Visual Growth Reduction (%) 21 Days After Application KCHSC)?
**A.** Its pest or weed control at 70 g/ha is 95 to 100%.

**Q.** What about the pest or weed control at 140 g/ha ([6]; Bassia scoparia, post-emergence, 504 h, 140 g ai/ha, read-out: Visual Growth Reduction (%) 21 Days After Application KCHSC) of the same compound?
**A.** The pest or weed control at 140 g/ha was 95 to 100%.

**Q.** What about the “GR50 KCHSC” value [6, 12] of the same compound?
**A.** The value was 1 g ai/ha.

**Q.** And the “GR80 KCHSC” value [6, 13]?
**A.** The value was 2 g ai/ha.

**Q.** And the pest or weed control at 35 g/ha ([7]; Bromus tectorum, post-emergence, 504 h, 35 g ai/ha, read-out: Visual Growth Reduction (%) 21 Days After Application BROTE)?
**A.** The pest or weed control at 35 g/ha was 30 to 44%.

**Q.** And the pest or weed control at 70 g/ha ([7]; Bromus tectorum, post-emergence, 504 h, 70 g ai/ha, read-out: Visual Growth Reduction (%) 21 Days After Application BROTE)?
**A.** Its pest or weed control at 70 g/ha is 45 to 59%.

**Q.** And the pest or weed control at 140 g/ha ([7]; Bromus tectorum, post-emergence, 504 h, 140 g ai/ha, read-out: Visual Growth Reduction (%) 21 Days After Application BROTE)?
**A.** Its pest or weed control at 140 g/ha is 45 to 59%.

**Q.** And the “GR50 BROTE” value [7, 12]?
**A.** Its value is 136 g ai/ha.

**Q.** What about the “GR80 BROTE” value [7, 13] of the same compound?
**A.** Its value is >140 g ai/ha.

**Q.** What about the pest or weed control at 35 g/ha ([8]; Veronica persica, post-emergence, 504 h, 35 g ai/ha, read-out: Visual Growth Reduction (%) 21 Days After Application VERPE) of the same compound?
**A.** Its pest or weed control at 35 g/ha is 45 to 59%.

**Q.** What about the pest or weed control at 70 g/ha ([8]; Veronica persica, post-emergence, 504 h, 70 g ai/ha, read-out: Visual Growth Reduction (%) 21 Days After Application VERPE) of the same compound?
**A.** Its pest or weed control at 70 g/ha is 60 to 74%.

**Q.** And the pest or weed control at 140 g/ha ([8]; Veronica persica, post-emergence, 504 h, 140 g ai/ha, read-out: Visual Growth Reduction (%) 21 Days After Application VERPE)?
**A.** Its pest or weed control at 140 g/ha is 75 to 84%.

**Q.** And the “GR50 VERPE” value [8, 12]?
**A.** Its value is 32 g ai/ha.

**Q.** And the “GR80 VERPE” value [8, 13]?
**A.** Its value is >140 g ai/ha.

**Q.** And the pest or weed control at 35 g/ha ([9]; 35 g ai/ha)?
**A.** The pest or weed control at 35 g/ha was 0 to 29%.

**Q.** What about the pest or weed control at 70 g/ha ([9]; 70 g ai/ha) of the same compound?
**A.** The pest or weed control at 70 g/ha was 30 to 44%.

**Q.** What about the pest or weed control at 140 g/ha ([9]; 140 g ai/ha) of the same compound?
**A.** Its pest or weed control at 140 g/ha is 45 to 59%.

**Q.** What about the pest or weed control at 35 g/ha ([10]; Matricaria chamomilla, post-emergence, 504 h, 35 g ai/ha, read-out: Visual Growth Reduction (%) 21 Days After Application MATSS) of the same compound?
**A.** Its pest or weed control at 35 g/ha is 75 to 84%.

**Q.** What about the pest or weed control at 70 g/ha ([10]; Matricaria chamomilla, post-emergence, 504 h, 70 g ai/ha, read-out: Visual Growth Reduction (%) 21 Days After Application MATSS) of the same compound?
**A.** Its pest or weed control at 70 g/ha is 75 to 84%.

**Q.** What about the pest or weed control at 140 g/ha ([10]; Matricaria chamomilla, post-emergence, 504 h, 140 g ai/ha, read-out: Visual Growth Reduction (%) 21 Days After Application MATSS) of the same compound?
**A.** The pest or weed control at 140 g/ha was 85 to 94%.

**Q.** What about the “GR50 MATSS” value [10, 12] of the same compound?
**A.** Its value is 10 g ai/ha.

**Q.** And the “GR80 MATSS” value [10, 13]?
**A.** The value was 62 g ai/ha.
